“And” between values parts separate entries of the source, which are not always exact repeats. Equal entries are not always repeated.
How the values were obtained:
Plasmodium falciparum = test: Plasmodium falciparum sporozoite viability assay; type: functional, organism-based; conditions: for IC50: Plasmodium falciparum
[1] = test system: Mycobacterium tuberculosis; test: Cornell M. t heat shock assay; type: functional, organism-based; conditions: Mycobacterium tuberculosis
[2] = molecular target: T1, Ubiquitin-activating enzyme e1, putative (Leishmania donovani (strain BPK282A1), UniProt E9BSI1); test: Leishmania donovani Ubiquitin Activating Enzyme (LdE1); type: functional
T1 sequence (E9BSI1 whole entry): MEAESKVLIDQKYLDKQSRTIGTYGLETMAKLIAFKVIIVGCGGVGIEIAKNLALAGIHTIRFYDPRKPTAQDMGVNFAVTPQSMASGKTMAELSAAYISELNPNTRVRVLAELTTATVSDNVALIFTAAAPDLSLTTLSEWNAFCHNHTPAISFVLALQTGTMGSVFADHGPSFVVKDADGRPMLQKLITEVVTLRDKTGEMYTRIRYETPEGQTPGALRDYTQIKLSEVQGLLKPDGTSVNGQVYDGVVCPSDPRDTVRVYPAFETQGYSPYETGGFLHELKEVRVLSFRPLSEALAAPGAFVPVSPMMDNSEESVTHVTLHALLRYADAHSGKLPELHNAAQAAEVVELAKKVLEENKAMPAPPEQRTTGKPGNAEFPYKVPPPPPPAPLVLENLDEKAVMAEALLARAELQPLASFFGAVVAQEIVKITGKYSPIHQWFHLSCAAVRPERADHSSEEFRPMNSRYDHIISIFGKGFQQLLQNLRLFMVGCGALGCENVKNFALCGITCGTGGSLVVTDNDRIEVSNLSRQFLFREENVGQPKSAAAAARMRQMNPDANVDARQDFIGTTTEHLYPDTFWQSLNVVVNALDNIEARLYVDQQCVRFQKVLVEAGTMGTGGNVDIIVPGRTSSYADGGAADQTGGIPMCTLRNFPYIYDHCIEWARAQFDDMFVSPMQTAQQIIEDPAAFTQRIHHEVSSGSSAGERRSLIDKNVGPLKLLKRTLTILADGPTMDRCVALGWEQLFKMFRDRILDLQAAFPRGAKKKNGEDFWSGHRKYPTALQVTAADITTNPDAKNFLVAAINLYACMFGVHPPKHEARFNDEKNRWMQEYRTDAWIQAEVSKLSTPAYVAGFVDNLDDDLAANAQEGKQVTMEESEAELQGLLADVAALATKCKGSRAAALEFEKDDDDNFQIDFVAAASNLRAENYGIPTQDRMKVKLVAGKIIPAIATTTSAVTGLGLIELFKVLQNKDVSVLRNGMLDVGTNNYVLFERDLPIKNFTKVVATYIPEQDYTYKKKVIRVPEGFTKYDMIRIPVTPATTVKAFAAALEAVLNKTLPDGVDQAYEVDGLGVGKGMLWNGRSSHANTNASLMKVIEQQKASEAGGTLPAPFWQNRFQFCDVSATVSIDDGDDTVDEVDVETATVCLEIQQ

Leishmania donovani = test: Leishmania intramacrophage assay; type: functional, organism-based; conditions: Leishmania donovani
[3] = molecular target: T2, Coenzyme A biosynthesis bifunctional protein CoaBC (Mycobacterium tuberculosis (strain ATCC 25618 / H37Rv), UniProt P9WNZ1); test: Biomol Green assay for MtCoaBC inhibitor, OD650 read; type: functional
T2 sequence (P9WNZ1 whole entry): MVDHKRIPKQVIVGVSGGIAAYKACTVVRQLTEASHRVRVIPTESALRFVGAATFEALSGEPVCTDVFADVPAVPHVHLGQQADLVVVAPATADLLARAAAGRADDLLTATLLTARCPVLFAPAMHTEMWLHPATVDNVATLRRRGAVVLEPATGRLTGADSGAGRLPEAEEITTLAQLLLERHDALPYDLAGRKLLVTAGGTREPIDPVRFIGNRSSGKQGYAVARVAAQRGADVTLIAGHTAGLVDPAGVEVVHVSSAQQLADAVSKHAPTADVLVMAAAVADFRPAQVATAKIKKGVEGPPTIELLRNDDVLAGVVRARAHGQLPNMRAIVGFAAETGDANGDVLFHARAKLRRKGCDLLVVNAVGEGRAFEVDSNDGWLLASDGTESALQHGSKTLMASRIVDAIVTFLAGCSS

Histidine--tRNA ligase = molecular target: T3, Histidine--tRNA ligase (Leishmania infantum, UniProt A4I591); test: Leishmania infantum Histidine tRNA synthetase (LdHisRS); type: functional
T3 sequence (A4I591 whole entry): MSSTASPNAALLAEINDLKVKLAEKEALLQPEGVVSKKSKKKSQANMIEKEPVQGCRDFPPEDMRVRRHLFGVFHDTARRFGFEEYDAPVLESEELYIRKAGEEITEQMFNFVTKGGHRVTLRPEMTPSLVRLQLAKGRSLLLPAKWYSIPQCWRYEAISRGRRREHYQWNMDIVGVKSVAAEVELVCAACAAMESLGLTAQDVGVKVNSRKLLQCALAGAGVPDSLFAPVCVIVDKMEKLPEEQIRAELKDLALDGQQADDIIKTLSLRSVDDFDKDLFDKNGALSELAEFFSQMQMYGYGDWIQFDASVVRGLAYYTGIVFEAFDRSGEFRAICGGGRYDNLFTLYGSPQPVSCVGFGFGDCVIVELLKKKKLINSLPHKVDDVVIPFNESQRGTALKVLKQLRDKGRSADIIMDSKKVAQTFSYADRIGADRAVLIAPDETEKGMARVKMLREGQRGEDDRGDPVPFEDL

Compound | IC50 [2] [µM] | other results
Cc1cccc(NC2CCN(C(=O)Nc3ccc(F)c(F)c3)CC2)n1 | – | IC50 (Plasmodium falciparum): 7.62 µM; IC50 [1]: > 49 µM
Cc1cc(C)n(CC2CCCN2Cc2ncc(C(C)(C)C)o2)n1 (stereo unspecified) | > 100 | –
Cc1nc(CN2CCCN(C(=O)C(C)OCC3CC3)CC2)cs1 (stereo unspecified) | > 100 | –
CC(C)C(NC(=O)NCCNc1ncccn1)c1cccs1 (stereo unspecified) | > 100 | –
CC(C)c1nc2n(n1)CC(NCc1nnnn1C1CC1)CC2 (stereo unspecified) | > 100 | –
CC(Cn1cccn1)NCc1nc(-c2ccccn2)no1 (stereo unspecified) | > 100 | –
O=C(NCc1ccccc1Cn1cncn1)C1CCC1 | > 100 | –
CC(C)C(NC(=O)NCCNc1ccccn1)c1cccs1 (stereo unspecified) | > 100 | –
COc1ccc(CNCc2ccnc(N3CCOCC3)c2)cc1OC | > 100 | –
O=C(NCc1ccccc1Cn1cncn1)C1CCCC1 | > 100 | –
CC[C@@H]1N(CC2CCC2)CCC[C@]12CCC(=O)N2Cc1ccncc1 | > 100 | –
COc1ccc(CNCc2ccnc(N3CCCCC3)c2)cc1OC | > 100 | –
CC(C)n1nc2c(cc1=O)CN(Cc1nnc(C3CC3)o1)CC2 | > 100 | –
c1cnc(-c2nc(CN3CCN(CC4CC4)CC3)cs2)nc1 | – | pIC50 (Plasmodium falciparum): 5.511; IC50 (Plasmodium falciparum): 2.26 µM; IC50 (Leishmania donovani): > 50.1 µM
O=C(CCNC(=O)C1CCCC1)NCc1ccccc1Cn1cncn1 | > 100 | –
CC(OCC1CC1)C(=O)N1CCCN(Cc2nccn2C(C)C)CC1 (stereo unspecified) | > 100 | –
COCc1nc2cc(NCc3ncc[nH]3)ccc2o1 | > 100 | –
c1csc(-c2noc(CNCCn3cccn3)n2)c1 | > 100 | –
Cc1ncc(C(=O)NCCNc2ncccc2C#N)s1 | > 100 | –
Cc1ccc(C(=O)N2C[C@@H]3COC[C@]3(COCc3cccnc3)C2)cn1 | > 100 | –
O=C(c1ccccc1F)N1C[C@@H]2COC[C@]2(COCc2cccnc2)C1 | > 100 | –
CC(Cn1cccn1)NCCCc1nc(-c2cccs2)no1 (stereo unspecified) | > 100 | –
CC(C)c1nc2n(n1)CC(NCc1nc(C3CC3)no1)CC2 (stereo unspecified) | > 100 | –

Compound | IC50 [2] [µM] | other results
COc1cc(CNCc2ccnc(N3CCCCC3)c2)cc(OC)c1 | > 100 | –
O=C(CCNC(=O)C1CCCC1)NCc1cccnc1-n1cncn1 | > 100 | –
Cc1nc(C)n(CC2CCCN(Cc3ncc(C(C)(C)C)o3)C2)n1 (stereo unspecified) | > 100 | –
CCc1nc2n(n1)CC(NCc1nnc(C(C)C)o1)CC2 (stereo unspecified) | > 100 | –
Cc1cnn(CC(C)NCc2nc(-c3cccs3)no2)c1 (stereo unspecified) | > 100 | –
CC(Cn1cccn1)NCc1nc(-c2cccs2)no1 (stereo unspecified) | > 100 | –
COCc1nc2cc(NCc3csc(C)n3)ccc2o1 | > 100 | –
CNS(=O)(=O)Cc1cccc(CNC(=O)Nc2cn[nH]c2)c1 | > 100 | –
Cc1cc(C(=O)N2C[C@@H]3COC[C@]3(COCc3cccnc3)C2)no1 | > 100 | –
CC(C)c1nc2n(n1)CC(NCc1ncc(C(C)(C)C)o1)CC2 (stereo unspecified) | > 100 | –
COCCC(=O)N1C[C@@H]2COC[C@]2(COCc2cccnc2)C1 | > 100 | –
Cc1nc(C(=O)N2C[C@@H]3COC[C@]3(COCc3cccnc3)C2)cs1 | > 100 | –
Cc1cnn(CC2CCCCN2Cc2ncc(C(C)(C)C)o2)c1 (stereo unspecified) | > 100 | –
Cc1nc(C(C)C)sc1C(=O)NCCNc1ncccc1C#N | > 100 | –
Cc1nc(C)n(CC2CCCN2Cc2ncc(C(C)(C)C)o2)n1 (stereo unspecified) | > 100 | –
CCCn1nc2c(cc1=O)CN(Cc1nnc(C3CC3)o1)CC2 | > 100 | –
CC(C)C(NC(=O)NCCNc1cnccn1)c1cccs1 (stereo unspecified) | > 100 | –
COc1ccc(-c2noc(CNC(C)Cn3cccn3)n2)c(OC)c1 (stereo unspecified) | > 100 | –
COc1ccc(OC)c(CNCc2ccnc(N3CCCCC3)c2)c1 | > 100 | –
CC(C)c1nc2cc(NC(=O)c3n[nH]c4c3CCC4)ccc2n1C | – | IC50 [3]: > 30.2 µM; pIC50 (Plasmodium falciparum): 6.833 and 6.465
Cc1csc(NC(=O)c2cnc(C3CCCN3)cn2)n1.Cl (stereo unspecified) | – | pIC50 (Plasmodium falciparum): 7.11; IC50 (Plasmodium falciparum): 0.153 µM; IC50 [1]: > 100 µM
CC(C)C(=O)N1CCN(Cc2csc(-c3ncccn3)n2)CC1 | – | pIC50 (Plasmodium falciparum): 5.96; IC50 (Plasmodium falciparum): 1.42 µM; IC50 (Leishmania donovani): > 50.1 µM
O=C(Nc1cccnc1)C1Cc2nc(-c3ccsc3)sc2N1CC1CC1.O=C(O)C(F)(F)F (stereo unspecified) | – | pIC50 (Plasmodium falciparum): 5.393; IC50 (Plasmodium falciparum): 3 µM; IC50 (Histidine--tRNA ligase): 27.4 µM and 35.2 µM

Reference: ChEMBL document CHEMBL3988442, “University of Dundee, Small-Polar-MMV Screening Library” (2021)
